# Laboratory results reported in publication PMC2187893 (The Journal of Experimental Medicine, 1990).
# Experiments:
# Assay type in all cases: cell-based
# [1] = test system: human peripheral blood T cells; experiment: Naloxone inhibition of T cell migration to stimuli; settings: for Effect of naloxone on specific migration (percent response): naloxone-treated/nontreated x 100%; for Specific migration with naloxone / Specific migration without naloxone: spontaneous locomotion subtracted
# [2] = test system: human peripheral blood T lymphocytes; experiment: T cell migration assay in microchemotaxis chamber; settings: peptides at 10 -5 M in lower wells, 1.5 h at 37C, Fig. 3; Dunnett's test
# [3] = test system: human peripheral blood T lymphocytes; experiment: Migration assay with or without concentration gradient
# [4] = doses between 10-13 and 10^-9 M, migration only when a gradient existed
# [5] = donor 5, stimulus at 10^-5 M, naloxone 10^-5 M
# [6] = donor 4, stimulus at 10^-9 M, naloxone 10^-5 M
molecule,measurement,setting,value
"C=CCN1CC[C@]23c4c5ccc(O)c4O[C@H]2C(=O)CC[C@@]3(O)[C@H]1C5 [naloxone, Naloxone]",effect of naloxone on locomotion caused by IL-2,"[1]; naloxone 10^-5 M, cells pretreated 15 h at 37C, IL-2 100 U/ml, Table 1",no effect
same,effect of naloxone on T cell migration in response to MET-ENK or LEU-ENK,"[1]; naloxone 10^-5 M, cells pretreated 15 h at 37C, Table 1",inhibited
"(D-Ala2, o- Leu']-enkephalin [DADLE]",T cell migration response compared with spontaneous locomotion,[2],greater then spon- taneous locomotion
"/3-END: purified human beta-endorphin from Calbiochem-Behring Corp.; endogenous opioid neurohormone (YGGFMTSEKSQTPLVTLFKNAIIKNAYKKGE; Beta-endorphin; UniProt P01189 237-267, looked up)",T cell migration without gradient (stimulus in upper and lower chambers),"[3]; 10-9, 10^-7 and 10^-5 M, single donor, Fig. 2, p >0.05, NS",equivalent to the spontaneous locomotion
same,type of locomotion stimulated,"[3]; beta-END, Fig. 2, 10^-9 to 10^-5 M",chemotactic
H-Gly-Gly-Phe-Leu-OH [DesTyr-LEU-ENK],T cell migration response compared with spontaneous locomotion,[2],no effect on T cell migration
"Tyr-Gly-Gly-Phe-Leu [LEU-ENK, leucine-enkephalin]",T cell migration response compared with spontaneous locomotion,[2],stimulatory
same,type of locomotion stimulated,[3]; [4],chemotactic
same,Effect of naloxone on specific migration (percent response),[1]; [5],18.4%
same,Specific migration with naloxone,[1]; [5],582
same,Specific migration without naloxone,"[1]; donor 5, stimulus at 10^-5 M","3,171"
"Tyr-Gly-Gly-Phe-Met [MET-ENK, methionine-enkephalin]",type of locomotion stimulated,[3]; [4],chemotactic
same,Specific migration with naloxone,"[1]; donor 4, stimulus at 10- "" M, naloxone 10^-5 M",2
same,Specific migration without naloxone,"[1]; donor 4, stimulus at 10- "" M",830
same,Effect of naloxone on specific migration (percent response),[1]; [6],12.8%
same,Specific migration with naloxone,[1]; [6],335
same,Effect of naloxone on specific migration (percent response),[1]; [5],24.8%
same,Specific migration with naloxone,[1]; [5],768
same,Specific migration without naloxone,"[1]; donor 5, stimulus at 10^-5 M","3,093"
[D-Ser2Leu']- enkephalin Thb [DSLET],T cell migration response compared with spontaneous locomotion,[2],greater then spon- taneous locomotion
"[n-Ala-2,N-Me-Phe4Met(o)4-01]-enkephalin [FK 33-824]",T cell migration response compared with spontaneous locomotion,[2],greater then spon- taneous locomotion
"[o-Ala2 ,MePhe4,Gly(ol)'j-enkephalin [DAGO]",T cell migration response compared with spontaneous locomotion,[2],greater then spon- taneous locomotion
"cyclic [p-Pen2,n-Pen']-enkephalin [DPDPE]",T cell migration response compared with spontaneous locomotion,[2],greater then spon- taneous locomotion
